The values below are quoted from earlier work in patent publication US10332616B2, “Movable type method applied to protein-ligand binding” (University of Florida Research Foundation, Inc., priority 2013, dated 2019).

The conditions of this data set: experimental solvation free energy.
Where [1] appears, read: test set with 372 neutral compounds.

Structures are written as SMILES. Read-outs that look alike come from different tables or passages of the source.

Turning to `C` [Compound 0001met], the “Exp. ΔGsolv” value under setting [1] was 2 kcal/mol.

Take `CCC` [Compound 0003pro]: under setting [1], the “Exp. ΔGsolv” value is listed as 1.96 kcal/mol.

With `CCCC` [Compound 0004nbu], under setting [1], the “Exp. ΔGsolv” value is 2.08 kcal/mol.

Regarding `CCCCCC` [Compound 0006nhe], under setting [1], the “Exp. ΔGsolv” value is given as 2.49 kcal/mol.

For `CCCCCCC` [Compound 0007nhe], the “Exp. ΔGsolv” value under setting [1] was 2.62 kcal/mol.

For the compound `CCCCCCCC` [Compound 0008noc], the “Exp. ΔGsolv” value under setting [1] is given as 2.89 kcal/mol.

Turning to `CC(C)C` [Compound 0010met], under setting [1], the “Exp. ΔGsolv” value is given as 2.32 kcal/mol.

With `CC(C)(C)C` [Compound 0011dim], the “Exp. ΔGsolv” value under setting [1] is 2.5 kcal/mol.

In the case of `CCCC(C)C` [Compound 0012met], the “Exp. ΔGsolv” value under setting [1] is recorded as 2.52 kcal/mol.

`CC(C)CC(C)C` [Compound 0013dim]: the “Exp. ΔGsolv” value under setting [1] is on record as 2.88 kcal/mol.

Take `C1CC1` [Compound 0016cyc]: under setting [1], the “Exp. ΔGsolv” value is reported as 0.75 kcal/mol.

On to `C1CCCC1` [Compound 0017cyc], for which, under setting [1], the “Exp. ΔGsolv” value is given as 1.2 kcal/mol.

For the compound `C1CCCCC1` [Compound 0018cyc], the “Exp. ΔGsolv” value under setting [1] is recorded as 1.23 kcal/mol.

In the case of `CC1CCCCC1` [Compound 0019met], the “Exp. ΔGsolv” value under setting [1] is 1.71 kcal/mol.

With `C[C@@H]1CCCC[C@@H]1C` [Compound 0020cis], under setting [1], the “Exp. ΔGsolv” value is given as 1.58 kcal/mol.

As to `C=C` [Compound 0021eth], the “Exp. ΔGsolv” value under setting [1] was 1.27 kcal/mol.

`C=CC` [Compound 0022pro]: the “Exp. ΔGsolv” value under setting [1] was 1.27 kcal/mol.

As to `C=CC=C` [Compound 0023str], the “Exp. ΔGsolv” value under setting [1] is given as 0.61 kcal/mol.

With `C=C(C)C` [Compound 0024met], the “Exp. ΔGsolv” value under setting [1] is 1.16 kcal/mol.

For the compound `C=CCC` [Compound 0025buta], under setting [1], the “Exp. ΔGsolv” value is on record as 1.38 kcal/mol.

As to `C1=CCCC1` [Compound 0026cyc], the “Exp. ΔGsolv” value under setting [1] is given as 0.56 kcal/mol.

As to `C=CCCC` [Compound 0027pen], the “Exp. ΔGsolv” value under setting [1] was 1.66 kcal/mol.

Turning to `C/C=C/CC` [Compound 0028Epe], the “Exp. ΔGsolv” value under setting [1] is on record as 1.34 kcal/mol.

Take `C=CCCCC` [Compound 0029hex]: the “Exp. ΔGsolv” value under setting [1] is 1.68 kcal/mol.

Consider `C#C` [Compound 0030eth], for which, under setting [1], the “Exp. ΔGsolv” value is -0.01 kcal/mol.

Regarding `C#CC` [Compound 0031pro], the “Exp. ΔGsolv” value under setting [1] is -0.31 kcal/mol.

With `C#CCC` [Compound 0032but], the “Exp. ΔGsolv” value under setting [1] is -0.16 kcal/mol.

With `C#CCCCC` [Compound 0034hex], under setting [1], the “Exp. ΔGsolv” value was 0.29 kcal/mol.

Consider `c1ccccc1` [Compound 0035ben], for which, under setting [1], the “Exp. ΔGsolv” value was -0.87 kcal/mol.

Take `Cc1ccccc1` [Compound 0036tol]: under setting [1], the “Exp. ΔGsolv” value was -0.89 kcal/mol.

As for `CCc1ccccc1` [Compound 0037eth], the “Exp. ΔGsolv” value under setting [1] was -0.8 kcal/mol.

On to `Cc1ccccc1C` [Compound 0038oxy], for which, under setting [1], the “Exp. ΔGsolv” value is -0.9 kcal/mol.

In the case of `Cc1cccc(C)c1` [Compound 0039mxy], the “Exp. ΔGsolv” value under setting [1] was -0.84 kcal/mol.

As for `Cc1ccc(C)cc1` [Compound 0040pxy], the “Exp. ΔGsolv” value under setting [1] was -0.81 kcal/mol.

Turning to `c1ccc2ccccc2c1` [Compound 0041nap], the “Exp. ΔGsolv” value under setting [1] is -2.39 kcal/mol.

Regarding `c1ccc2cc3ccccc3cc2c1` [Compound 0042ant], the “Exp. ΔGsolv” value under setting [1] was -4.23 kcal/mol.

For `CCO` [Compound 0045eth], where the note is “neutral compounds test set”, the “Exp. ΔGsolv” value is -5.01 kcal/mol.

Consider `OCCO` [Compound 0046eth], for which the “Exp. ΔGsolv” value (neutral compounds test set) is -9.3 kcal/mol.

Regarding `CCCO` [Compound 0047pro], for the setting “neutral compounds test set”, the “Exp. ΔGsolv” value was -4.83 kcal/mol.

Turning to `CC(C)O` [Compound 0048pro], the “Exp. ΔGsolv” value (neutral compounds test set) is -1.76 kcal/mol.

As to `OC1CCCC1` [Compound 0051cyc], the “Exp. ΔGsolv” value (neutral compounds test set) was -5.49 kcal/mol.

For `CCCCCO` [Compound 0052pen], for the setting “neutral compounds test set”, the “Exp. ΔGsolv” value was -4.47 kcal/mol.

Consider `Oc1ccccc1` [Compound 0053phe], for which the “Exp. ΔGsolv” value (neutral compounds test set) was -6.62 kcal/mol.

On to `CCCCCCO` [Compound 0054hex], for which, where the note is “neutral compounds test set”, the “Exp. ΔGsolv” value was -4.36 kcal/mol.

For `Cc1ccccc1O` [Compound 0055ocr], under “neutral compounds test set”, the “Exp. ΔGsolv” value was -5.87 kcal/mol.

For the compound `Cc1cccc(O)c1` [Compound 0056mcr], the “Exp. ΔGsolv” value (neutral compounds test set) was -5.49 kcal/mol.

Turning to `CCCCCCCO` [Compound 0058hep], for the setting “neutral compounds test set”, the “Exp. ΔGsolv” value was -4.24 kcal/mol.

On to `COC` [Compound 0060dim], for which the “Exp. ΔGsolv” value (neutral compounds test set) is -1.92 kcal/mol.

Take `C1CCOC1` [Compound 0061tet]: the “Exp. ΔGsolv” value (neutral compounds test set) is -3.47 kcal/mol.

As to `C1COCCO1` [Compound 0062dio], for the setting “neutral compounds test set”, the “Exp. ΔGsolv” value is -5.05 kcal/mol.

As for `CCOCC` [Compound 0063die], the “Exp. ΔGsolv” value (neutral compounds test set) is -1.76 kcal/mol.

Regarding `CCCOC` [Compound 0064met], the “Exp. ΔGsolv” value (neutral compounds test set) is -1.66 kcal/mol.

`COC(C)C` [Compound 0065met]: the “Exp. ΔGsolv” value (neutral compounds test set) was -2.01 kcal/mol.

Regarding `COC(C)(C)C` [Compound 0067but], the “Exp. ΔGsolv” value (neutral compounds test set) was -2.21 kcal/mol.

`COc1ccccc1` [Compound 0068ani]: the “Exp. ΔGsolv” value (neutral compounds test set) is -2.45 kcal/mol.

For `CCCC=O` [Compound 0072but], the “Exp. ΔGsolv” value (neutral compounds test set) is -3.18 kcal/mol.

Consider `CCCCC=O` [Compound 0073pen], for which the “Exp. ΔGsolv” value (neutral compounds test set) was -3.03 kcal/mol.

Take `O=Cc1ccccc1` [Compound 0074ben]: the “Exp. ΔGsolv” value (neutral compounds test set) was -4.02 kcal/mol.

With `CC(C)=O` [Compound 0075pro], the “Exp. ΔGsolv” value under setting [1] was -3.85 kcal/mol.

In the case of `CCC(C)=O` [Compound 0076but], the “Exp. ΔGsolv” value under setting [1] was -3.64 kcal/mol.

Consider `O=C1CCCC1` [Compound 0077cyc], for which the “Exp. ΔGsolv” value under setting [1] was -4.68 kcal/mol.

Turning to `CCCC(C)=O` [Compound 0078pen], under setting [1], the “Exp. ΔGsolv” value was -3.53 kcal/mol.

As for `CCC(=O)CC` [Compound 0079pen], the “Exp. ΔGsolv” value under setting [1] is -3.41 kcal/mol.

On to `CCCCC(C)=O` [Compound 0080hex], for which the “Exp. ΔGsolv” value under setting [1] was -3.29 kcal/mol.

`CC(=O)C(C)(C)C` [Compound 0081dim]: the “Exp. ΔGsolv” value under setting [1] is -2.89 kcal/mol.

For the compound `CCCC(=O)CCC` [Compound 0083hep], under setting [1], the “Exp. ΔGsolv” value was -2.93 kcal/mol.

For the compound `CC(=O)c1ccccc1` [Compound 0084met], the “Exp. ΔGsolv” value under setting [1] was -4.58 kcal/mol.

On to `CC(=O)O` [Compound 0086eth], for which the “Exp. ΔGsolv” value (neutral compounds test set) is -6.7 kcal/mol.

For the compound `CCC(=O)O` [Compound 0087pro], the “Exp. ΔGsolv” value (neutral compounds test set) is -6.47 kcal/mol.

In the case of `CCCC(=O)O` [Compound 0088but], the “Exp. ΔGsolv” value (neutral compounds test set) was -6.36 kcal/mol.

For the compound `CCCCC(=O)O` [Compound 0089pen], the “Exp. ΔGsolv” value (neutral compounds test set) is -6.16 kcal/mol.

With `CCCCCC(=O)O` [Compound 0090hex], where the note is “neutral compounds test set”, the “Exp. ΔGsolv” value was -6.21 kcal/mol.

With `COC=O` [Compound 0091met], the “Exp. ΔGsolv” value (neutral compounds test set) is -2.78 kcal/mol.

In the case of `CCOC=O` [Compound 0092ethb], the “Exp. ΔGsolv” value (neutral compounds test set) was -2.65 kcal/mol.

In the case of `COC(C)=O` [Compound 0093met], under “neutral compounds test set”, the “Exp. ΔGsolv” value is -3.32 kcal/mol.

Take `CCC(=O)OC` [Compound 0094met]: for the setting “neutral compounds test set”, the “Exp. ΔGsolv” value was -2.93 kcal/mol.

On to `CCOC(C)=O` [Compound 0095eth], for which the “Exp. ΔGsolv” value (neutral compounds test set) is -3.1 kcal/mol.

Consider `CCCC(=O)OC` [Compound 0096met], for which, where the note is “neutral compounds test set”, the “Exp. ΔGsolv” value was -2.83 kcal/mol.

Consider `CCCOC(C)=O` [Compound 0097pro], for which, for the setting “neutral compounds test set”, the “Exp. ΔGsolv” value is -2.86 kcal/mol.

In the case of `CCCCC(=O)OC` [Compound 0098met], the “Exp. ΔGsolv” value (neutral compounds test set) is -2.57 kcal/mol.
